Data set [1] in a line: Vomiting effect in pigeons. It is filed as in vivo.
The next data set in a line: Acute toxicity in rats. To be noted: rat, in vivo, iv, intravenously.
Data set [2] can be described thus: General pharmacological examination (circulatory, spasmolytic, central nervous system). The class given is in vivo, mice, rats and rabbits. As to the method: (§1) Pharmacological examination of the compound C-857 was carried out in mice, rats and rabbits. The acute, subacute, and long-term toxicity were studied in rats and rabbits (orally and intraperitoneally) and in mice (intraperitoneally). […] In the subacute toxicity studies (3 weeks) 1/60 and 1/120 of LD50 were considered; in the long-term toxicity evaluations (3 months) - 1/200 and 1/400 of LD50.
(§2) In a dose corresponding to 1/2 of LD50 it inhibits the spontaneous mobility and shortens hexobarbital anaesthesia. […] Its immunosuppresive action measured in contact allergy tests, local transplant-host reaction tests and post adjuvant multiarticular inflammation is minimal and appears only after the total dose corresponding to 1/5 of LD50.

Data set [3] in a line: Immunosuppressive action (contact allergy, local transplant-host reaction, post adjuvant multiarticular inflammation tests). It is filed as in vivo. To be noted: appears only after the total dose corresponding to 1/5 of LD50.
Source text: as §2

A short description of data set [4]: Subacute toxicity studies (3 weeks). It is filed as in vivo, mice, rats and rabbits. As to the method: as §1
About 15-40 % of total number of mice died after a dose of 1/120 of LD50. The increase in the number of leucocytes (particularly in rabbits) and decrease in relative number of lymphocytes were observed. However, no changes in the number of red cells were found. […] The preparation C-857 induced some drop of the urine level in rabbits.

A further data set deals with Crocker sarcoma (Sa-180). The data set can be described thus: Growth inhibition of Crocker sarcoma (Sa-180) in mice. It is filed as in vivo. To be noted: intraperitoneally, tumor weight vs control. As to the method: The growth inhibition of Crocker sarcoma (Sa-180) in mice.
For these experiments three-months old mice of about 25 g in weight were used. Each was inoculated with mouse sarcoma (Sa-180) and then they were divided into groups: a group of 10 control mice, and two to four test groups of 7 mice each.
The compounds to be investigated were administered intraperitoneally in appropriate doses after previous determination of maximum tolerance dose.
The percent difference between the mean weight of tumors isolated from control and test mice was accepted as a criterion for the evaluation of antineoplastic activity of the compounds, taking into account the toxic effects.
After doses of between 0.2-0.8 mg/kg the percent of inhibition was 44-86% respectively. Similarly, for the preparation allocated the code number C-934, i.e. 1-nitro-9-(hydroxybutylamino)acridine hydrochloride, after doses of between 0.2-0.4 mg/kg percent of inhibition was 45-60 % respectively.

Data set [5] deals with cells forming colonies in marrow. On the set-up: species or system mice. To be noted: mouse, in vivo. The source says: The effect of action of compound C-857 is similar to that of Bleomicine which is non-toxic for marrow.
A further data set can be described thus: Acute toxicity in mice. As to conditions: intraperitoneally. It is filed as in vivo. The source says: The acute, subacute, and long-term toxicity were studied in rats and rabbits (orally and intraperitoneally) and in mice (intraperitoneally).
A short description of data set [6]: Long-term toxicity evaluations (3 months). The class given is in vivo, mice, rats and rabbits. As to the method: as §1
The preparation C-857 was found not to change the spleen-liver index.
No changes of urea and creatinine content were found.

Data set [7] can be described thus: Acute toxicity in rabbits. As to conditions: rabbit, in vivo, route not given. As to the method: as §1
[8] abbreviates: dose corresponding to 1/2 of LD50.
Where [9] appears, read: intravenously, doses increasing to 20 mg/kg.

2 molecules from patent publication EP0038572A1, “1-Nitro-9-hydroxyalkylaminoacridines or their salts” (priority 1980, dated 1981) can be followed below.

Take `Cl.O=[N+]([O-])c1cccc2nc3ccccc3c(NCCO)c12` [Example C-857, 1-nitro-9-(2-hydroxyethylamino)-acridine hydrochloride]: the vomiting effect result in data set [1] is “did not exert vomiting effect”. This molecule showed a 50% lethal dose (LD50) in the data set “Acute toxicity in rats” of 9.2 mg/kg. In [2] (setting [8]), the hexobarbital anaesthesia result is given as “shortens” and the spontaneous mobility result is reported as “inhibits”. In [2] (in vivo), the “analgestic or anti-conclusive activity” value is “does not show any”; the “effect on central nervous system” value is “weak and irregular”. For the same molecule, in data set [2] (setting [9]), the “effect on the circulatory system” value is recorded as “did not exert any significant effect” and the spasmolytic action entry is listed as “weak”. Further, in [3], the immunosuppresive action result is recorded as “minimal”. Further, in [4] (3 weeks, 1/60 and 1/120 of LD50), the “effects observed in the subacute toxicity investigations” value is “moult, dyspndea, lack of thirst, diarrhoea, and loss of body weight”. Also, the “total number of mice died” value in [4] (mice, dose of 1/120 of LD50, subacute) was 15-40%. Moreover, the urine level result in [4] (rabbits, subacute) is “some drop”. In data set [4] (subacute), the “Liver and kidney function tests” value was “no pathological abnormalities”; the “histologic studies, findings” value was “nectrotic inflammation of the liver capsule and peritoneum of intestine wall”; the “histologic studies, interneal organs (liver, kidney, thymus gland)” value is on record as “No pathological abnormalities”; the “number of red cells” value is listed as “no changes”. The “relative number of lymphocytes” value in data set [4] (subacute) is “decrease”. Besides, the number of leucocytes result in [4] (subacute, particularly in rabbits) is “increase”. The percent of inhibition with Crocker sarcoma (Sa-180) (doses of between 0.2-0.8 mg/kg) is 44-86%. Further, the “myclo- toxic effect on cells forming colonies in marrow” value in data set [5] is recorded as “not to produce myclo- toxic effect”. For the same molecule, in “Acute toxicity in mice”, the “maximal tolerated dose, LD10” value amounted to 2.5 mg/kg. In addition, the LD50 in the data set “Acute toxicity in mice” (mouse, in vivo, ip) amounted to 10.6 mg/kg. In addition, in [6] (3 months, 1/200 and 1/400 of LD50), the “general changes in long-term toxicity observation” value was “decrease in physical activity, lack of thirst or occasional diarrhoea”. In addition, in data set [6] (administrated intraperitoneally), the local action result was “locally irritating action”. In addition, in [6] (in rabbits and rats), the “leucocytes (hematologic studies)” value is reported as “leucocytosis” and the “relative content of eosinophis” value is given as “decrease”. For the same molecule, the value of hematocrit entry in data set [6] (in rabbits, hematologic studies) is given as “decrease”. Moreover, in data set [6] (in vivo), the “activity of AspAT and ALAT enzymes” value is reported as “no changes”; the “activity of alkaline phosphatase” value is reported as “Slight changes”; the “urea and creatinine content” value is reported as “No changes”. Further, in data set [6] (long-term), the “changes in liver and kidneys” value was “Insignificant changes”; the “changes in thymus gland and intestine” value is given as “no changes”; the spleen-liver index result is listed as “not to change”. The molecule also returned a median lethal dose (LD50) in [7] of 11.4 mg/kg.
In the case of `Cl.O=[N+]([O-])c1cccc2nc3ccccc3c(NCCCCO)c12` [Example C-934, 1-nitro-9(4-hydroxybutylamino)acridine hydrochloride], in the data set with Crocker sarcoma (Sa-180) (doses of between 0.2-0.4 mg/kg), the percent of inhibition was 45-60%.

Usually LD50 stands for the dose expected to kill half of the subjects tested.
